Legend:
[1] = tested on: blackgrass; assay: Test B pre/postemergence blackgrass; type: in vivo, Alopecurus myosuroides
Summary of the method: (§1)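 Test chemicals in a non-phytotoxic solvent mixture with surfactant were sprayed preemergence onto planted seeds and postemergence onto plants 2 to 18 cm tall (1- to 4-leaf stage). After twelve to sixteen days in a greenhouse, injury was visually rated against untreated controls from 0 (no effect) to 10 (complete control).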

[2] = tested on: surinam grass; assay: Test B pre/postemergence surinam grass; type: in vivo, Brachiaria decumbens
Summary of the method: as §1

[3] = tested on: cocklebur; assay: Test B pre/postemergence cocklebur; type: in vivo, Xanthium strumarium
Summary of the method: as §1

[4] = tested on: corn; assay: Test B pre/postemergence corn; type: in vivo, Zea mays
Summary of the method: as §1

[5] = tested on: giant foxtail; assay: Test B pre/postemergence giant foxtail; type: in vivo, Setaria faberii
Summary of the method: as §1

[6] = tested on: morningglory; assay: Test B pre/postemergence morningglory; type: in vivo, Ipomoea hederacea; conditions: for Plant response rating, Morningglory: scale of 0 to 10 where 0 is no effect and 10 is complete control
Summary of the method: as §1

[7] = tested on: pigweed; assay: Test B pre/postemergence pigweed; type: in vivo, Amaranthus retroflexus; conditions: for Plant response rating, Redroot pigweed: scale of 0 to 10 where 0 is no effect and 10 is complete control
Summary of the method: as §1

[8] = tested on: rape; assay: Test B pre/postemergence rape; type: in vivo, Brassica napus; conditions: for Plant response rating, Rape: scale of 0 to 10 where 0 is no effect and 10 is complete control
Summary of the method: as §1

[9] = tested on: soybean; assay: Test B pre/postemergence soybean; type: in vivo, Glycine max; conditions: for Plant response rating, Soybean: scale of 0 to 10 where 0 is no effect and 10 is complete control
Summary of the method: as §1

[10] = tested on: sugar beet; assay: Test B pre/postemergence sugar beet; type: in vivo, Beta vulgaris; conditions: for Plant response rating, Sugarbeets: scale of 0 to 10 where 0 is no effect and 10 is complete control
Summary of the method: as §1

[11] = tested on: velvetleaf; assay: Test B pre/postemergence velvetleaf; type: in vivo, Abutilon theophrasti; conditions: for Plant response rating, Velvetleaf: scale of 0 to 10 where 0 is no effect and 10 is complete control
Summary of the method: as §1

[12] = tested on: wheat; assay: Test B pre/postemergence wheat; type: in vivo, Triticum aestivum; conditions: for Plant response rating, Wheat: scale of 0 to 10 where 0 is no effect and 10 is complete control
Summary of the method: as §1

[13] = tested on: wild oat; assay: Test B pre/postemergence wild oat; type: in vivo, Avena fatua; conditions: for Plant response rating, Wild oats: scale of 0 to 10 where 0 is no effect and 10 is complete control
Summary of the method: as §1

[14] = tested on: rice; assay: Test B flood test rice; type: in vivo, Oryza sativa
Summary of the method: (§2)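 Read-out is a visual response score from 0 (no effect) to 10 (complete control), assigned by comparison with untreated controls. Treatment was applied at the 2-leaf stage, and plants stayed in the greenhouse for twelve to sixteen days before scoring.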

[15] = tested on: smallflower flatsedge; assay: Test B flood test smallflower flatsedge; type: in vivo, Cyperus difformis
Summary of the method: as §2

[16] = tested on: duck salad; assay: Test B flood test duck salad; type: in vivo, Heteranthera limosa
Summary of the method: as §2

[17] = Postemergence, Rate 250 g/ha, scale 0 to 10
[18] = Postemergence, Rate 500 g/ha, scale of 0 to 10 where 0 is no effect and 10 is complete control
[19] = Preemergence, Rate 62 g/ha, scale of 0 to 10 where 0 is no effect and 10 is complete control
[20] = Preemergence, Rate 125 g/ha, scale of 0 to 10 where 0 is no effect and 10 is complete control
[21] = Preemergence, Rate 250 g/ha, scale 0 to 10, 0 is no effect, 10 is complete control
[22] = Preemergence, Rate 500 g/ha, scale 0 to 10, 0 is no effect, 10 is complete control
[23] = Rate 62 g/ha, Postemergence, scale 0 to 10 (0 no effect, 10 complete control)
[24] = Rate 125 g/ha, Postemergence, scale 0 to 10, 0 is no effect, 10 is complete control
[25] = Rate 62 g/ha, flood test species, Pre-emergence, visual evaluation after twelve to sixteen days
[26] = Rate 125 g/ha, under heading Pre-emergence, flood test species, visual evaluation after twelve to sixteen days
[27] = Rate 250 g/ha, Pre-emergence (flood test species), scale 0 to 10, 0 is no effect, 10 is complete control
[28] = Rate 500 g/ha, Pre-emergence, flood test species, scale 0 to 10 (0 no effect, 10 complete control)

CC(C)N(C(=O)n1oc(=O)n(CCS(C)(=O)=O)c1=O)c1ccc(F)cc1 [Compound 453]
4: Plant response rating, Redroot pigweed ([7]; Preemergence, Rate 125 g/ha)
10: Giant foxtail plant response rating [5, 21] | Giant foxtail plant response rating [5, 22] | Redroot pigweed plant response rating [7, 22]
1: Soybean plant response rating [9, 17] | Soybean plant response rating [9, 23] | Soybean plant response rating [9, 24]
8: Wild oats plant response rating [13, 22]
3: Blackgrass plant response rating [1, 21] | Corn plant response rating [4, 22] | Giant foxtail plant response rating [5, 23] | Morningglory plant response rating [6, 22] | Rape plant response rating [8, 22] | Wheat plant response rating [12, 21]
7: Giant foxtail plant response rating [5, 17] | Plant response rating, Giant foxtail [5, 19]
6: Blackgrass plant response rating [1, 17] | Blackgrass plant response rating [1, 18] | B. signalgrass plant response rating [2, 21] | B. signalgrass plant response rating [2, 22] | Redroot pigweed plant response rating [7, 21] | Velvetleaf plant response rating [11, 22] | Wheat plant response rating [12, 22]
9: Giant foxtail plant response rating [5, 18] | Plant response rating, Giant foxtail [5, 20]
5: Blackgrass plant response rating [1, 22] | B. signalgrass plant response rating [2, 18] | Giant foxtail plant response rating [5, 24] | Sugarbeets plant response rating [10, 22]
0: Plant response rating, Blackgrass [1, 19] | Plant response rating, Blackgrass [1, 20] | Blackgrass plant response rating [1, 23] | Blackgrass plant response rating [1, 24] | Plant response rating, B. signalgrass [2, 19] | B. signalgrass plant response rating [2, 23] | B. signalgrass plant response rating [2, 24] | Cocklebur plant response rating [3, 17] | Cocklebur plant response rating [3, 18] | Plant response rating, Cocklebur [3, 19] | Plant response rating, Cocklebur [3, 20] | Cocklebur plant response rating [3, 21] | Cocklebur plant response rating [3, 22] | Cocklebur plant response rating [3, 23] | Cocklebur plant response rating [3, 24] | Corn plant response rating [4, 17] | Corn plant response rating [4, 18] | Plant response rating, Corn [4, 19] | Plant response rating, Corn [4, 20] | Corn plant response rating [4, 21] | Corn plant response rating [4, 23] | Corn plant response rating [4, 24] | Plant response rating, Morningglory ([6]; Preemergence, Rate 62 g/ha) | Plant response rating, Morningglory ([6]; Preemergence, Rate 125 g/ha) | Morningglory plant response rating [6, 21] | Morningglory plant response rating [6, 23] | Morningglory plant response rating [6, 24] | Redroot pigweed plant response rating [7, 17] | Plant response rating, Redroot pigweed ([7]; Preemergence, Rate 62 g/ha) | Redroot pigweed plant response rating [7, 23] | Redroot pigweed plant response rating [7, 24] | Rape plant response rating [8, 17] | Plant response rating, Rape ([8]; Preemergence, Rate 62 g/ha) | Plant response rating, Rape ([8]; Preemergence, Rate 125 g/ha) | Rape plant response rating [8, 21] | Rape plant response rating [8, 23] | Rape plant response rating [8, 24] | Plant response rating, Soybean ([9]; Preemergence, Rate 62 g/ha) | Plant response rating, Soybean ([9]; Preemergence, Rate 125 g/ha) | Soybean plant response rating [9, 21] | Soybean plant response rating [9, 22] | Sugarbeets plant response rating [10, 17] | Plant response rating, Sugarbeets ([10]; Preemergence, Rate 62 g/ha) | Plant response rating, Sugarbeets ([10]; Preemergence, Rate 125 g/ha) | Sugarbeets plant response rating [10, 23] | Sugarbeets plant response rating [10, 24] | Velvetleaf plant response rating [11, 17] | Plant response rating, Velvetleaf ([11]; Preemergence, Rate 62 g/ha) | Plant response rating, Velvetleaf ([11]; Preemergence, Rate 125 g/ha) | Velvetleaf plant response rating [11, 23] | Velvetleaf plant response rating [11, 24] | Wheat plant response rating [12, 17] | Plant response rating, Wheat ([12]; Preemergence, Rate 62 g/ha) | Plant response rating, Wheat ([12]; Preemergence, Rate 125 g/ha) | Wheat plant response rating [12, 23] | Wheat plant response rating [12, 24] | Wild oats plant response rating [13, 17] | Plant response rating, Wild oats ([13]; Preemergence, Rate 62 g/ha) | Plant response rating, Wild oats ([13]; Preemergence, Rate 125 g/ha) | Wild oats plant response rating [13, 23] | Wild oats plant response rating [13, 24] | Plant response rating, Rice (0 to 10 scale, 0 is no effect, 10 is complete control) [14, 25] | Rice plant response rating (0 to 10 scale, 0 is no effect, 10 is complete control) [14, 26] | Rice plant response rating [14, 27] | Rice plant response rating [14, 28] | Plant response rating, S. Flatsedge (0 to 10 scale, 0 is no effect, 10 is complete control) [15, 25] | S. Flatsedge plant response rating (0 to 10 scale, 0 is no effect, 10 is complete control) [15, 26] | S. Flatsedge plant response rating [15, 27] | S. Flatsedge plant response rating [15, 28] | Plant response rating, Ducksalad (0 to 10 scale, 0 is no effect, 10 is complete control) [16, 25] | Ducksalad plant response rating (0 to 10 scale, 0 is no effect, 10 is complete control) [16, 26] | Ducksalad plant response rating [16, 27] | Ducksalad plant response rating [16, 28]
2: B. signalgrass plant response rating ([2]; Postemergence, Rate 250 g/ha, scale 0 to 10, 0 no effect, 10 complete control) | Plant response rating, B. signalgrass [2, 20] | Morningglory plant response rating [6, 17] | Sugarbeets plant response rating [10, 21] | Velvetleaf plant response rating [11, 21] | Wild oats plant response rating [13, 21]

Source: patent US6737383B1, “Herbicidal oxadiazolidines” (priority 1999, dated 2004)
